# In PMC6683083, “Lupin Peptide T9 (GQEQSHQDEGVIVR) Modulates the Mutant PCSK9^D374Y Pathway: in vitro Characterization of its Dual Hypocholesterolemic Behavior” (Nutrients, 2019):
# Entries after “also recorded” stand apart in the source; their conditions may differ.
# Columns and labels:
# [1] = target: T1, HMGCoAR (Homo sapiens, UniProt P04035); experiment: In vitro HMGCoAR activity assay (Sigma kit); format: biochemical; conditions: 10^−5 to 10^−3 M; 37 °C; NADPH oxidation, absorbance at 340 nm, 0 and 10 min; means ± SD
# T1 construct: purchased Sigma (Sigma-Aldrich, St. Louis, MO, USA)
# T1 sequence (P04035 426-888 limits assumed): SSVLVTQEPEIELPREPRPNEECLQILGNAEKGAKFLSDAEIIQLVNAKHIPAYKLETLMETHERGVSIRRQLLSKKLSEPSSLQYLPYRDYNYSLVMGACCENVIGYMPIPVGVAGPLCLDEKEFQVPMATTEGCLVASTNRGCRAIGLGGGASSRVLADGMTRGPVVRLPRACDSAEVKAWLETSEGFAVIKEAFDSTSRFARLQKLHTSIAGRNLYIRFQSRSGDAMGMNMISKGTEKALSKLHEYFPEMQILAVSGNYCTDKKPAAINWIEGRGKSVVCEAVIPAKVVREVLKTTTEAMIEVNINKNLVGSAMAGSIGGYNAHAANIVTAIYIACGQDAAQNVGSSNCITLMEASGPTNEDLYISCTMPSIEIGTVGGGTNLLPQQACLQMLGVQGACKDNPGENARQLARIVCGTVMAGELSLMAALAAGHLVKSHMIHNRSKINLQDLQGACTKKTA
# Procedure: The assay buffer, NADPH, substrate solution, and HMGCoAR were provided in the HMGCoAR Assay Kit (Sigma). The experiments were carried out as previously described. See Supplementary Materials for further details.
# In vitro experiments were performed in order to confirm the in silico study according to which T9 was a potential inhibitor of the HMGCoAR activity. Peptide concentrations ranging from 10^−5 to 10^−3 M were tested.
# Brief description of material and methods
# Dulbecco’s modified Eagle’s medium (DMEM), stable L-glutamine, fetal bovine serum (FBS), phosphate buffered saline (PBS), penicillin/streptomycin, chemiluminescent reagent, and 96-well plates were purchased from Euroclone (Milan, Italy). […]
# The assay buffer, NADPH, substrate solution, and HMGCoAR were provided in the HMGCoAR Assay Kit (Sigma). […] The absorbance at time 0 and 10 min were recorded. The HMGCoAR-dependent oxidation of NADPH and the inhibition properties of lupin peptides were measured by the absorbance reduction at 340 nm read by a microplate reader […]
# Transfected HepG2 cells (1.5 × 10^5 cells/well) were treated with 100 μM T9 for 24 h. […] After centrifugation at 16,060 g for 15 min at 4 °C, the supernatant was recovered and total proteins were quantified by the Bradford method. […]
# [2] = tested on: intestinal peptidases; conditions: ref [13]; cited from earlier work
# Source text: (§1) GQEQSHQDEGVIVR (T9) is a peptide, deriving from the hydrolysis of β-conglutin with trypsin, showing a pI of 4.3, a hydrophobicity value of 25.97 Kcal mol^−1, and a net charge of −2 at pH 7.0. Its 14-aminoacids sequence comprises a polar negatively charged N-terminal, containing a glutamate residue, and a nonpolar positively charged C-terminal, containing an arginine residue. […] Two previous in silico studies have predicted the potential ...
# [3] = tested on: human intestinal Caco-2 cells; conditions: human intestinal Caco-2 cells / enterocytes; ref [13]; cited from earlier work
# Source text: as §1, with “A previous study has shown that T9 impairs the protein–protein interaction between mutant D374Y Proprotein Convertase Subtilisin/Kexin 9 (PCSK9^D374Y) and the low-density lipoprotein receptor (LDLR), thus exerting a hypocholesterolemic effect. […] The present ... || GQEQSHQDEGVIVR” for “GQEQSHQDEGVIVR”
structure (smiles),measurement,setting,value
CC[C@H](C)[C@H](NC(=O)[C@@H](NC(=O)CNC(=O)[C@H](CCC(=O)O)NC(=O)[C@H](CC(=O)O)NC(=O)[C@H](CCC(N)=O)NC(=O)[C@H](Cc1cnc[nH]1)NC(=O)[C@H](CO)NC(=O)[C@H](CCC(N)=O)NC(=O)[C@H](CCC(=O)O)NC(=O)[C@H](CCC(N)=O)NC(=O)CN)C(C)C)C(=O)N[C@H](C(=O)N[C@@H](CCCNC(=N)N)C(=O)O)C(C)C [T9],IC50,[1],99.5 ± 0.56 µM
same,stability to metabolic degradation operated by intestinal peptidases (in words),[2],stable to the metabolic degradation operated by intestinal peptidases
same,intestinal absorption (in words),[3],absorbed in human intestinal Caco-2 cells; also recorded: absorbed by enterocytes
